Assays:
Bovine (aorta) LOX = molecular target: T1, Bovine (aorta) LOX (Bos taurus, UniProt P33072); experiment: Amplex Red oxidation assay, LOX inhibition; type: biochemical
T1 construct: Bovine (aorta) LOX used for analog screening due to ready availability; from tissue; host or cells: bovine aorta
T1 sequence (P33072 170-418): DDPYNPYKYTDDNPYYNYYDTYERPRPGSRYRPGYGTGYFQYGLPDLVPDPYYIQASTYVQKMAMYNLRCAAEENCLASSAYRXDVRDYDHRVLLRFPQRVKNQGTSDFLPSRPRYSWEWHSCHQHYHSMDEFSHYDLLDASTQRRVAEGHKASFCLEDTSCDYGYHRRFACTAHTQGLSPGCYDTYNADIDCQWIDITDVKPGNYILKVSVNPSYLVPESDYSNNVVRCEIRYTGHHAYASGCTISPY
Protocol: The measurement of the enzymatic activity of all lysyl oxidase family members was based on the detection of hydrogen peroxide with an Amplex-Red oxidation assay, as previously described; miniaturized in 384 well formats, with the appropriate combination of substrate and assay buffer for each individual enzyme. After a 30 min pre-incubation of the enzyme at 37 °C with the test compound (or with different incubation times for the time-dependency assay), one volume of reaction mixture containing 120 μM Amplex Red (AR) (Life Technologies), 1.5 U/mL horseradish peroxidase (HRP) (Sigma-Aldrich) and the specific substrate was added to each sample. The relative fluorescence units (RFU) were then measured every 2.5 min for 30 min at 37 °C, excitation 565 nm and emission 590, on a BMG Clariostar Microplate Reader. All the substrates were used at concentrations corresponding to their Km towards the corresponding enzyme, or with a range of different concentrations for the substrate competition experiments.
Lysyl oxidases assay buffer contained 1.2 M urea, 50 mM sodium borate buffer, pH 8.2 and 100 µM β-aminoproprionitrile (BAPN, Sigma-Aldrich) was used for low control.

Adrenergic α1B = Adrenergic α1B (Rattus norvegicus, UniProt P15823); experiment: Eurofins panel 203200; type: binding
Neuropeptide Y Y1 = Neuropeptide Y Y1 (Homo sapiens, UniProt P25929); experiment: Eurofins panel 257010; type: binding
[1] = Stability in cream formulations; type: physicochemical
Adenosine A1 = Adenosine A1 (Homo sapiens, UniProt P30542); experiment: Eurofins panel 200510; type: binding
Bradykinin B1 = Bradykinin B1 (Homo sapiens, UniProt P46663); experiment: Eurofins panel 212510; type: binding
fibroblasts = experiment: RNASeq transcriptome analysis, fibroblasts; type: cell-based, human; conditions: 24 hrs of treatment
hERG potassium channel [2] = molecular target: T2, hERG potassium channel (Homo sapiens, UniProt Q12809); experiment: Eurofins panel 265900; type: binding
Sigma σ1 = Sigma σ1 (Homo sapiens, UniProt Q99720); experiment: Eurofins panel 278110; type: binding
[3] = molecular target: Nicotinic Acetylcholine α1, Bungarotoxin (Homo sapiens, UniProt P02708+P07510+Q07001); experiment: Eurofins panel 258700; type: binding; conditions: read-out: % Inh.
GABAA, Muscimol, Central = experiment: Eurofins panel 226500; type: binding, rat; conditions: 10 µM
Nicotinic Acetylcholine = experiment: Eurofins panel 258590; type: binding, human; conditions: 10 µM
Dopamine D4.2 = Dopamine D4.2 (Homo sapiens, UniProt P21917, DEL265-296); experiment: Eurofins panel 219900; type: binding
Purinergic P2X = experiment: Eurofins panel 268700; type: binding, rabbit; conditions: 10 µM
Cyclooxygenase COX-2 = Cyclooxygenase COX-2 (Homo sapiens, UniProt P35354); experiment: Eurofins panel 118010; type: biochemical
lysyl oxidases = tested on: lysyl oxidases; set-up: method as in ACTRN1262100322831; conditions: ref ACTRN1262100322831; cited from earlier work
Phosphodiesterase PDE3A = Phosphodiesterase PDE3A (Homo sapiens, UniProt Q14432); experiment: Eurofins panel 152300; type: biochemical
[4] = molecular target: Protein Tyrosine Kinase, LCK (Homo sapiens, UniProt P06239); experiment: Eurofins panel 176020; type: biochemical
hERG potassium channel [5] = molecular target: T2, hERG potassium channel; experiment: Eurofins panel 265910; type: binding; conditions: probe [3H]Dofetilide
Monoamine Oxidase MAO-A = Monoamine Oxidase MAO-A (Homo sapiens, UniProt P21397); experiment: Eurofins panel 140010; type: biochemical
[6] = tested on: deep-dermal contact burn scar; experiment: Porcine burn injury model with tensile strength testing; type: in vivo, pig
PAMPA permeability = type: in vitro ADME
[7] = molecular target: Cholinesterase, Acetyl, ACES (Homo sapiens, UniProt P22303); experiment: Eurofins panel 104010; type: biochemical

T2 sequence (Q12809 whole entry): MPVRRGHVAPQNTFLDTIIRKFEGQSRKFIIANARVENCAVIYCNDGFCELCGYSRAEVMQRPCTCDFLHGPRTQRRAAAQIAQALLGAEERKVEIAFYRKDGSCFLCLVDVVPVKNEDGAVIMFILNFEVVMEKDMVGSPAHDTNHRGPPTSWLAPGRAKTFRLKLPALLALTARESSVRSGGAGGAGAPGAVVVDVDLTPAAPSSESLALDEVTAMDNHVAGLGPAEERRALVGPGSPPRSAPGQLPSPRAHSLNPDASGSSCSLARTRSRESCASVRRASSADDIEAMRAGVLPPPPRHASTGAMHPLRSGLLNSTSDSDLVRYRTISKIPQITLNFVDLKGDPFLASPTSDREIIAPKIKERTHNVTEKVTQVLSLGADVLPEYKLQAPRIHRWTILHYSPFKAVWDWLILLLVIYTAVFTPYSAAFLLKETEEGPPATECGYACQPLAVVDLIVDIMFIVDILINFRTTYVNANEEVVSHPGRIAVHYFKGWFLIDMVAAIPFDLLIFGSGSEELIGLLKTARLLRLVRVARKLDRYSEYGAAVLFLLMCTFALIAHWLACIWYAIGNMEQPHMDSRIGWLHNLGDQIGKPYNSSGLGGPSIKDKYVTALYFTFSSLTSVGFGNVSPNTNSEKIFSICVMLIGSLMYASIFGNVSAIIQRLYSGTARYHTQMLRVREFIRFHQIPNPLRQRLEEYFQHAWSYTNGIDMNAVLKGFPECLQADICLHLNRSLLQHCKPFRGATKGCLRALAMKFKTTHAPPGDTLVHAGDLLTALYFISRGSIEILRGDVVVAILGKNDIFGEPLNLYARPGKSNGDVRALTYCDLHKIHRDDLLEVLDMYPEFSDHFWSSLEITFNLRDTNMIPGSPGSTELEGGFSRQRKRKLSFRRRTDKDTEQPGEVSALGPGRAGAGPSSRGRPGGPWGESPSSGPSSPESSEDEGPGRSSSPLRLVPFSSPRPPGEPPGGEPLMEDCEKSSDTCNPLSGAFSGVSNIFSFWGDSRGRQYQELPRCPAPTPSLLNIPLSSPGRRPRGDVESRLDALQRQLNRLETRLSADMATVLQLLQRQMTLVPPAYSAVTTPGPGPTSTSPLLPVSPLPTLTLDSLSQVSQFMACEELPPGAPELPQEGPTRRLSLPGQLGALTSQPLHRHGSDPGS
Sequence of Adenosine A1 (P30542 whole entry): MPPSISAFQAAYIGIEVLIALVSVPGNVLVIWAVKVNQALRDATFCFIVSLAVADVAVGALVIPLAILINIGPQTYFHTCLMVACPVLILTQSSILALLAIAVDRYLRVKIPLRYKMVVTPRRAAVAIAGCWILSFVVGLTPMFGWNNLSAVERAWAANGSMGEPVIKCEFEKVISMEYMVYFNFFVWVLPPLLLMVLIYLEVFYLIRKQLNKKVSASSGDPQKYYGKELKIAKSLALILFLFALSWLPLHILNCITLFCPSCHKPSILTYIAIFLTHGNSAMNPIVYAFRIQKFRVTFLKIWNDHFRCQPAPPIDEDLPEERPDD
Sequence of Dopamine D4.2 (P21917 with tags, fused parts or gaps DEL265-296): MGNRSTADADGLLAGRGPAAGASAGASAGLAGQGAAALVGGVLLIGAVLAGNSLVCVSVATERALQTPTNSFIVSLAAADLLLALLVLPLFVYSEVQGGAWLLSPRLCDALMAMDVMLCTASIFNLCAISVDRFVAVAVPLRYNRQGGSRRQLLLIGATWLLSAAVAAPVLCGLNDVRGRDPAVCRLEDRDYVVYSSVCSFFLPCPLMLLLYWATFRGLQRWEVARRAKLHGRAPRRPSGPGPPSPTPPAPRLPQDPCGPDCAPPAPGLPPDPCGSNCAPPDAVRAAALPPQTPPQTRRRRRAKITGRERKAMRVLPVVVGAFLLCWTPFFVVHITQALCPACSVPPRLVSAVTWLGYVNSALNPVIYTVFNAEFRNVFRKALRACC
Sequence of Adrenergic α1B (P15823 whole entry): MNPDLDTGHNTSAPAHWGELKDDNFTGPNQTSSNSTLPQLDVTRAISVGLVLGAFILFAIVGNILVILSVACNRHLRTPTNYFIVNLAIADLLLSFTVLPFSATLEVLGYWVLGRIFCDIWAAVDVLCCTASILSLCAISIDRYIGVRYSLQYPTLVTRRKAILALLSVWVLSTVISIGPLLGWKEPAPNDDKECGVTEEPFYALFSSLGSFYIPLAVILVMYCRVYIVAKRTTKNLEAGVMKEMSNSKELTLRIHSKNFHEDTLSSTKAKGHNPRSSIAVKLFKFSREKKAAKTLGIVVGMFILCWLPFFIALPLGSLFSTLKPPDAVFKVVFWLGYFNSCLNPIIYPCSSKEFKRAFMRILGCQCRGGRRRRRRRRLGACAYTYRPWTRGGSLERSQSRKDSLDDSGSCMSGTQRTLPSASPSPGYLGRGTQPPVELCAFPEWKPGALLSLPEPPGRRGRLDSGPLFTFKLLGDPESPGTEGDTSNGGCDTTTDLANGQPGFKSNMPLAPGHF
Sequence of Monoamine Oxidase MAO-A (P21397 whole entry): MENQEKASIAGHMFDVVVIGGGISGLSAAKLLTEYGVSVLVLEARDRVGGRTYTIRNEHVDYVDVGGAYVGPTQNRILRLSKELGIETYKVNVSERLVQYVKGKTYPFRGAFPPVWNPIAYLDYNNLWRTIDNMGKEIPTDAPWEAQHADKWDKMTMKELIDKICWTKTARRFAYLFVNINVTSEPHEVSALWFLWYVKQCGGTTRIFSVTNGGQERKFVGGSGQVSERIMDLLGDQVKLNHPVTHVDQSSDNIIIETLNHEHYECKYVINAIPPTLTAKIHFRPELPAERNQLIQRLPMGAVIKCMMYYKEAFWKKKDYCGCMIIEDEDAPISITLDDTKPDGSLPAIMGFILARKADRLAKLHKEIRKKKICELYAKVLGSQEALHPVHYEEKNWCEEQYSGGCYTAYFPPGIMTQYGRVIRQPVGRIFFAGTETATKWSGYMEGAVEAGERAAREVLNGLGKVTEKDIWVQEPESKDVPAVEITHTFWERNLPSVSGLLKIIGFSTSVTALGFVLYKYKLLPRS
Sequence of Bradykinin B1 (P46663 whole entry): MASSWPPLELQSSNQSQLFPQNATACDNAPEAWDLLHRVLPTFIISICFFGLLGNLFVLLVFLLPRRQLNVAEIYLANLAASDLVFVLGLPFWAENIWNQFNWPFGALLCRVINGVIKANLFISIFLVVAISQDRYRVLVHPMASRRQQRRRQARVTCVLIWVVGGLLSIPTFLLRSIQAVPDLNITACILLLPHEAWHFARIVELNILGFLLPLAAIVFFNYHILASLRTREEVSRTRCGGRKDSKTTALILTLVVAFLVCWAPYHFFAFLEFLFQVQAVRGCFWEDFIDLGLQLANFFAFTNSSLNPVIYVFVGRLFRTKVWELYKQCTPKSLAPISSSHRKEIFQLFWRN
Sequence of Phosphodiesterase PDE3A (Q14432 whole entry): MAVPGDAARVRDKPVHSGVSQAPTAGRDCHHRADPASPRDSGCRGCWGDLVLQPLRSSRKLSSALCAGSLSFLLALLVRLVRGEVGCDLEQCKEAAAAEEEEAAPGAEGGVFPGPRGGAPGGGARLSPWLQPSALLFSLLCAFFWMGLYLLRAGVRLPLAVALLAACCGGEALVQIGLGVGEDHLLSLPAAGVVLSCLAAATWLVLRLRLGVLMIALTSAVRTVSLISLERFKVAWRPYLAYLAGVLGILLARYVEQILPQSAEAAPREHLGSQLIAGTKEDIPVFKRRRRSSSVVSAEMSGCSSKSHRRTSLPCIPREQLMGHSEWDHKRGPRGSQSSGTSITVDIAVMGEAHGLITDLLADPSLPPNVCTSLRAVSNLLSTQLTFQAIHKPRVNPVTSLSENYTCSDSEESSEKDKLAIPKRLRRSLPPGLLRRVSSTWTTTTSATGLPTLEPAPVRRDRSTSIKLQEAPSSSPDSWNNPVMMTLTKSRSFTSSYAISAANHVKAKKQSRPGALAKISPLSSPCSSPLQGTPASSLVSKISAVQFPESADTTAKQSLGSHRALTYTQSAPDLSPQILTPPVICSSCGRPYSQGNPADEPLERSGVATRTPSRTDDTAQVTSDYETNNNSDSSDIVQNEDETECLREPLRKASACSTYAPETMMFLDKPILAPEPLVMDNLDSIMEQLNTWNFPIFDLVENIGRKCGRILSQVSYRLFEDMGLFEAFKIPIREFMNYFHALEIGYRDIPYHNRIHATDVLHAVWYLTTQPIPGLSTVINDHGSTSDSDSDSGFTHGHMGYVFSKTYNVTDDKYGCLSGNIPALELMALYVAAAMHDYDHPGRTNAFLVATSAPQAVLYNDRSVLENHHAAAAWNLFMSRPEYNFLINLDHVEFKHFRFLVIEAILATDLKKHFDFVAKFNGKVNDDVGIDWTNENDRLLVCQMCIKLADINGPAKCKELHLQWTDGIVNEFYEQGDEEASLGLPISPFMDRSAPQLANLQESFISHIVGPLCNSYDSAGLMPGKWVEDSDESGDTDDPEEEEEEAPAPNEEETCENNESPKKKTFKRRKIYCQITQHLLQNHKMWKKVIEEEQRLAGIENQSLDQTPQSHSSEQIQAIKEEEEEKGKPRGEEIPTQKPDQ
Sequence of Sigma σ1 (Q99720 whole entry): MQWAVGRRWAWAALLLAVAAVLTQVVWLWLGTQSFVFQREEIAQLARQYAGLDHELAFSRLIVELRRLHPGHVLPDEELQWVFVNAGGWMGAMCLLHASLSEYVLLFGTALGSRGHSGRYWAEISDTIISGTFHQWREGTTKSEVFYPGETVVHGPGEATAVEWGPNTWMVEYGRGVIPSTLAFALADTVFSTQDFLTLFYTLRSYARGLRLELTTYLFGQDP
Sequence of Neuropeptide Y Y1 (P25929 whole entry): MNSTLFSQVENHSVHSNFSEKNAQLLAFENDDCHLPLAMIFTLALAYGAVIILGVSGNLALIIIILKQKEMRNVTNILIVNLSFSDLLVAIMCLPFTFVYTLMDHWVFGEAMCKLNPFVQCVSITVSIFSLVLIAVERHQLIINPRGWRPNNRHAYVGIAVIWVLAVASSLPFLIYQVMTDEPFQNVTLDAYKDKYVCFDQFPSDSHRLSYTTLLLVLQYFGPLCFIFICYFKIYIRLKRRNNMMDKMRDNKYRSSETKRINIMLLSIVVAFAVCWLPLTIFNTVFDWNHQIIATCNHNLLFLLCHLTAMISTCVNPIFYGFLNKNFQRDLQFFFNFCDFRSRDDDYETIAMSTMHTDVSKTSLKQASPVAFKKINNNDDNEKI

Q: For `NC/C=C(\F)CS(=O)(=O)c1ccccc1` [PXS-4787], which IC50 (Bovine (aorta) LOX; 30 min pre-incubation) is on record?
A: 2000 nM

Q: And the inhibition at 30 µM (Bovine (aorta) LOX; log conc -4.5229, read-out: Fig 2A inhibition (mean))?
A: 99.2%

Q: What about the inhibition at 10 µM (Bovine (aorta) LOX; log conc -5, read-out: Fig 2A inhibition (mean)) of the same compound?
A: 92.3%

Q: And the inhibition at 3.333 µM (Bovine (aorta) LOX; log conc -5.4771, read-out: Fig 2A inhibition (mean))?
A: 65.8%

Q: And the inhibition at 1.111 µM (Bovine (aorta) LOX; log conc -5.9542, read-out: Fig 2A inhibition (mean))?
A: 35%

Q: What about the inhibition at 0.3704 µM (Bovine (aorta) LOX; log conc -6.4313, read-out: Fig 2A inhibition (mean)) of the same compound?
A: 14.2%

Q: What about the inhibition at 0.1235 µM (Bovine (aorta) LOX; log conc -6.9083, read-out: Fig 2A inhibition (mean)) of the same compound?
A: 4.31%

Q: And the inhibition at 0.0412 µM (Bovine (aorta) LOX; log conc -7.3851, read-out: Fig 2A inhibition (mean))?
A: 1.21%

Q: What about the inhibition at 0.0137 µM (Bovine (aorta) LOX; log conc -7.8633, read-out: Fig 2A inhibition (mean)) of the same compound?
A: -0.629%

Q: And the inhibition at 0.0046 µM (Bovine (aorta) LOX; log conc -8.3372, read-out: Fig 2A inhibition (mean))?
A: -1.3%

Q: What about the inhibition at […] (Bovine (aorta) LOX; log conc -8.8239, read-out: Fig 2A inhibition (mean)) of the same compound?
A: -1.09%

Q: And the inhibition at 0.0005 µM (Bovine (aorta) LOX; log conc -9.301, read-out: Fig 2A inhibition (mean))?
A: -1.47%

Q: And the inhibition at 10 µM (Adrenergic α1B)?
A: -2%

Q: What about the inhibition at 10 µM (Neuropeptide Y Y1) of the same compound?
A: 0%

Q: And the “stability in cream formulations” value [1]?
A: some unwanted degradation occurred

Q: And the inhibition at 10 µM (Adenosine A1)?
A: 1%

Q: And the inhibition at 10 µM (Bradykinin B1)?
A: 6%

Q: What about the “Log2 fold change ACTA2-AS1” value (fibroblasts) of the same compound?
A: -3.268

Q: And the “Log2 fold change GAL” value (fibroblasts)?
A: 2.787

Q: What about the “Log2 fold change ICOSLG” value (fibroblasts) of the same compound?
A: 1.738

Q: And the “Log2 fold change TMEM88” value (fibroblasts)?
A: 2.374

Q: What about the inhibition at 10 µM (hERG potassium channel [2]) of the same compound?
A: 9%

Q: What about the inhibition at 10 µM (Sigma σ1) of the same compound?
A: -10%

Q: And the inhibition at 10 µM [3]?
A: -3%

Q: What about the “% Inh.” value (GABAA, Muscimol, Central) of the same compound?
A: 13%

Q: And the “% Inh.” value (Nicotinic Acetylcholine)?
A: 1%

Q: What about the inhibition at 10 µM (Dopamine D4.2) of the same compound?
A: 1%

Q: And the “% Inh.” value (Purinergic P2X)?
A: 8%

Q: For `NC/C=C(\F)C(F)(F)S(=O)(=O)c1ccccc1` [PXS-6302], which inhibition at 30 µM (Cyclooxygenase COX-2) is on record?
A: 21%

Q: And the “target engagement and inhibition in phase I trial” value (lysyl oxidases)?
A: strong target engagement and long-lasting inhibition

Q: What about the inhibition at 30 µM (Phosphodiesterase PDE3A) of the same compound?
A: -4%

Q: What about the inhibition at 30 µM [4] of the same compound?
A: 1%

Q: What about the inhibition at 30 µM (hERG potassium channel [5]) of the same compound?
A: 29%

Q: And the inhibition at 30 µM (Monoamine Oxidase MAO-A)?
A: 10%

Q: And the “tensile strength, treated vs control scars” value ([6]; 3% cream)?
A: no significant differences

Q: What about the “scar photo score by blinded plastic surgeons vs placebo” value ([6]; 3% cream once daily from re-epithelialisation to 2 months post-injury) of the same compound?
A: significantly better

Q: What about the “treated scars with lower Young's modulus than matched vehicle treated scar” value ([6]; 3% cream, p = 0.15) of the same compound?
A: 5/6

Q: And the “PAMPA permeability (class in words)” value (PAMPA permeability)?
A: High and high permeability

Q: What about the Papp (PAMPA permeability; GIT PAMPA at pH 7.4, read-out: PAMPA permeability, Average of P) of the same compound?
A: 168 ×10⁻⁶ cm/s

Q: What about the inhibition at 30 µM [7] of the same compound?
A: 2%
